This is an account of results in patent publication US12704458B2, “Critical angle reflection imaging for quantification of molecular interactions” (ARIZONA BOARD OF REGENTS ON BEHALF OF ARIZONA STATE …, priority 2020, dated 2026).

In assay [1] the test system is glycoproteins on fixed HeLa cells. Description: SPR imaging of WGA binding to glycoproteins on fixed HeLa cells. Conditions: gold surface, 50 μg/ml WGA, average of 10 cells. The protocol: SPR was first used to measure glycoprotein-WGA interaction on fixed HeLa cells (FIG. 7a). The cells were cultured on a gold surface and fixed right before the measurement (FIG. 7b). PBS buffer was flowed over the surface to establish a baseline and then introduced 50 μg/ml WGA (FIG. 7c). Binding of WGA to the glycoproteins increased the surface refractive index and caused the SPR signal to increase. After the association process, PBS buffer was flowed in again to induce dissociation of WGA from the cells. […] The WGA was labeled with Alexa Fluor 488, allowing verification of the binding using fluorescence. Three fluorescence images were captured at different phases of the binding process: at the baseline, after association, and after dissociation (FIG. 7d) respectively. The fluorescence change, although weak, confirmed that the SPR signal was due to the binding.
(§1) All the cell-related experiments including CAR, SPR, transmitted and fluorescence measurements (FIGS. 7-9) were performed on an objective-based SPR microscope setup, which consisted of an inverted microscope (Olympus IX-81) and a 60× (NA 1.49) oil-immersion objective. The light source for CAR and SPR imaging was a superluminescent light emitting diode (SLD-260-HP-TOW-PD-670, Superlum, Ireland) with 670 nm wavelength. The light source for transmitted and fluorescence imaging were the stocking halogen and mercury lamp of the microscope, respectively. A CMOS camera (ORCA-Flash 4.0, Hamamatsu) was used to record the images. A gravity-based drug perfusion system (SF-77B, Warner Instruments, Connecticut) was used for delivering analytes to the cells.
HeLa, SH-EP1, and SH-EP1_α4β2 cells were obtained from the American Type Culture Collection. […]
(§2) WinSpall 3.01 (Resonant Technologies GmbH, Germany) was used to calculate the reflectivity as a function of incident angle for CAR and SPR. The recorded CAR and SPR images were processed with ImageAnalysis (Biosensing Instrument Inc.) and Fiji. […]

Assay [2] has the same test system. Description: CAR imaging of WGA binding to glycoproteins on fixed HeLa cells. Conditions: glass surface, ~61.0 degrees, 50 μg/ml WGA, average of the 9 cells. How it is done:
Next, CAR imaging was used to repeat the glycoprotein-WGA binding measurement. The cells were cultured on a glass surface, and the bright field image and the corresponding CAR image of 9 cells are shown in FIG. 7e. The cells show dark patterns because they have higher refractive index than the background. θi was set at ~61.0 degrees with similar sensitivity to SPR. […] The minor disagreement in kinetic constants might reflect different surfaces and different light illumination depth between SPR and CAR. Fluorescence images captured during the CAR measurement confirmed the binding of WGA (FIG. 7g). […] For this reason, CAR is believed to be more compatible with fluorescence than SPR, and suitable for measuring biological samples that need simultaneous fluorescent labelling.
as §1
HeLa, SH-EP1, and SH-EP1_α4β2 cells were obtained from the American Type Culture Collection. The cells were cultured in Dulbecco's modified eagle medium (Lonza) with 10% fetal bovine serum (Invitrogen) and 1% penicillin and streptomycin in a humidified incubator at 37° C. with 5% CO2. […]
as §2

Consider “WGA: lectin that specifically binds N-acetylglucosamine structures in glycoproteins; with Alexa Fluor 488 tag, Thermo Fisher Scientific”, for which, in assay [1], the Kd stood at 0.053 ± 0.001 µM, the ka result is “(2.5±0.1)×10^3 M^−1s^−1” and the kd entry is listed as “(1.3±0.1)×10^−4 s^−1”. Besides, in assay [2], the Kd stood at 0.042 ± 0.001 µM, the ka entry is “(6.0±0.1)×10^3 M^−1s^−1” and the kd result is “(2.6±0.1)×10^−4 s^−1”.
